Assay results as given in patent US8546440B2, “Substituted bicyclic imidazole derivatives as gamma secretase modulators” (Janssen Pharmaceuticals, Inc., priority 2008, dated 2013).

Assays:
Aβtotal [1] = test: Screening for γ-secretase-modulating activity, Method 1: Aβtotal sandwich ELISA in supernatant of SKNBE2 cells carrying APP 695 wild type (Tables 12a, 12b); format: cell-based
Summary of the method: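 SKNBE2 cells expressing wild-type APP 695 were plated a day ahead, then exposed to compound in Ultraculture with 1% glutamine for 18 hours. Supernatant Aβtotal captured on 6E10 overnight at 4° C, detected with biotinylated 4G8 and streptavidin-peroxidase with a fluorogenic substrate. IC50 from 4-parameter dose-response fits.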

Aβ42 [2] = test: Screening for γ-secretase-modulating activity, Method 1: Aβ42 sandwich ELISA in supernatant of SKNBE2 cells carrying APP 695 wild type (Tables 12a, 12b); format: cell-based
Summary of the method: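 SKNBE2 cells expressing wild-type APP695 were treated with compound for 18 h, and secreted Aβ42 in the medium was quantified by sandwich ELISA (C-terminal-selective capture, biotinylated 3D6 detection, TMB read at 450 nm). IC50 came from 4-parameter fits of % inhibition or % of untreated control; toxicity was checked by WST-1.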

Aβtotal [3] = test: Demonstration of in vivo efficacy: Aβtotal lowering in brain after single oral dose (Table 13); details: mouse brain soluble fraction, mean, compared to untreated animals
Excerpt: (§1) To determine whether acute administration of an Aβ42 lowering agent would reduce Aβ42 levels in vivo, non-transgenic rodents, e.g. mice or rats were used. Alternatively, two to three month old Tg2576 mice expressing APP695 containing the “Swedish” variant can be used or a transgenic mouse model developed by Dr. Fred Van Leuven (K. U. Leuven, Belgium) and co-workers, with neuron-specific expression of a clinical mutant of the human amyloid precursor protein [V717I] (Moechars et al., 1999 J. Biol. Chem. 274, 6483). Young transgenic mice have high levels of Aβ in the brain but no detectable Aβ deposition. At approximately 6-8 months of age, the transgenic mice start to display spontaneous, progressive accumulation of β-amyloid (Aβ) in the brain, eventually resulting in amyloid plaques within the subiculum, hippocampus and cortex. Animals treated with the Aβ42 lowering agent were examined and compared to those untreated or treated with vehicle and brain levels of soluble Aβ42 and total Aβ would be quantitated by standard techniques, for example, using ELISA. Treatment periods varied from hours to days and were adjusted based on the results of the Aβ42 lowering once a time course of onset of effect could be established.
(§2) A typical protocol for measuring Aβ42 lowering in vivo is shown but it is only one of many variations that could be used to optimize the levels of detectable Aβ. For example, Aβ42 lowering compounds were formulated in 20% of Captisol® (a sulfobutyl ether of β-cyclodextrin) in water or 20% hydroxypropyl β cyclodextrin. The Aβ42 lowering agents were administered as a single oral dose or by any acceptable route of administration to overnight fasted animals. After four hours, the animals were sacrificed and Aβ42 levels were analysed.
(§3) Blood was collected by decapitation and exsanguinations in EDTA-treated collection tubes. Blood was centrifuged at 1900 g for 10 minutes at 4° C. and the plasma recovered and flash frozen for later analysis. The brain was removed from the cranium and hindbrain. The cerebellum was removed and the left and right hemisphere were separated. The left hemisphere was stored at −18° C. for quantitative analysis of test compound levels. The right hemisphere was rinsed with phosphate-buffered saline (PBS) buffer and immediately frozen on dry ice and stored at −80° C. until homogenization for biochemical assays.
Mouse brains were resuspended in 10 volumes of 0.4% DEA (diethylamine)/50 mM NaCl pH 10 (for non-transgenic animals) or 0.1% 3-[3-cholamidopropyl)-dimethyl-ammonio]-1-propanesulfonate (CHAPS) in tris buffered saline (TBS) (for transgenic animals) containing protease inhibitors (Roche-11873580001 or 04693159001) per gram of tissue, e.g. for 0.158 g brain, add 1.58 ml of 0.4% DEA. All samples were sonicated for 30 seconds on ice at 20% power output (pulse mode). Homogenates were centrifuged at 221.300×g for 50 min. The resulting high speed supernatants were then transferred to fresh tubes and were optionally further purified before the next step. A portion of the supernatant was neutralized with 10% 0.5 M Tris-HCl and this was used to quantify Aβtotal. […]
In this model at least 20% Aβ42 lowering compared to untreated animals would be advantageous.

Aβ42 [4] = test: Screening for γ-secretase-modulating activity, Method 2: Aβ42 Alphalisa in supernatant of SKNBE2 cells carrying APP 695 wild type (Table 12c); format: cell-based; details: Homo sapiens, Method 2, Table 12c, incubated overnight
Summary of the method: (§4)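 SKNBE2 cells expressing wild-type APP695, 10^4 cells/well, exposed to compound overnight at 37 °C; secreted Aβ42 and Aβtotal in supernatant measured by AlphaLISA sandwich immunoassays (Aβ42: C-terminal/N-terminal antibodies; Aβtotal: N-terminal/4G8). IC50 from 4-parameter fit of % untreated control.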

Aβtotal [5] = test: Screening for γ-secretase-modulating activity, Method 2: Aβtotal Alphalisa in supernatant of SKNBE2 cells carrying APP 695 wild type (Table 12c); format: cell-based; details: Homo sapiens, Method 2, Table 12c, incubated overnight
Summary of the method: as §4

Aβ42 [6] = test: Demonstration of in vivo efficacy: Aβ42 lowering in brain after single oral dose (Table 13); details: mouse brain soluble fraction, ELISA, mean, compared to untreated animals
Excerpt: as §1, §2, §3
Mouse brains were resuspended in 10 volumes of 0.4% DEA (diethylamine)/50 mM NaCl pH 10 (for non-transgenic animals) or 0.1% 3-[3-cholamidopropyl)-dimethyl-ammonio]-1-propanesulfonate (CHAPS) in tris buffered saline (TBS) (for transgenic animals) containing protease inhibitors (Roche-11873580001 or 04693159001) per gram of tissue, e.g. for 0.158 g brain, add 1.58 ml of 0.4% DEA. All samples were sonicated for 30 seconds on ice at 20% power output (pulse mode). Homogenates were centrifuged at 221.300×g for 50 min. The resulting high speed supernatants were then transferred to fresh tubes and were optionally further purified before the next step. A portion of the supernatant was neutralized with 10% 0.5 M Tris-HCl and this was used to quantify Aβtotal.
The obtained supernatants were purified with Water Oasis HLB reverse phase columns (Waters Corp., Milford, Mass.) to remove non-specific immunoreactive material from the brain lysates prior subsequent Aβ detection. Using a vacuum manifold, all solutions were passed through the columns at a rate of approximately 1 ml per minute, so the vacuum pressure was adjusted accordingly throughout the procedure. Columns were preconditioned with 1 ml of 100% MeOH, before equilibration with 1 ml of H2O. Non-neutralized brain lysates were loaded onto the columns. The loaded samples were then washed twice with the first wash performed with 1 ml of 5% MeOH, and the second wash with 1 ml of 30% MeOH. Finally, the Aβ was eluted from the columns and into 100×30 mm glass tubes, with a solution of 90% MeOH with 2% NH4OH. […]

[7] = Homo sapiens, Method 1, Table 12a, SKNBE2 cells carrying APP 695 wild type, compounds 18 hours, ELISA, curve top and bottom fixed to 100 and 0, hill slope 1
[8] = Homo sapiens, Table 12b, Method 1, SKNBE2 cells carrying APP 695 wild type, cell supernatant ELISA, averaged IC50 values
[9] = Homo sapiens, Table 12b, Method 1, SKNBE2 cells carrying APP 695 wild type, cell supernatant ELISA, averaged IC50 values, percentage of control vs log concentration
[10] = Table 12b, Method 1, SKNBE2 cells carrying APP 695 wild type, cell supernatant ELISA, averaged IC50 values
[11] = Table 12b, Method 1, SKNBE2 cells carrying APP 695 wild type, cell supernatant ELISA, averaged IC50 values, percentage of control vs log concentration
[12] = Method 1, Table 12a, SKNBE2 cells carrying APP 695 wild type, compounds 18 hours, ELISA, curve top and bottom fixed to 100 and 0, hill slope 1

Compound | IC50 (Aβtotal [1]; [7]) | IC50 (Aβtotal [1]; [8]) | IC50 (Aβ42 [2]; [7]) | IC50 (Aβ42 [2]; [9]) | melting point | Aβtotal (% Ctrl)_Mean (Aβtotal [3]) | IC50 (Aβ42 [4]) | IC50 (Aβtotal [5]) | Aβ42 (% Ctrl)_Mean (Aβ42 [6]) | IC50 (Aβtotal [1]; [10]) | IC50 (Aβ42 [2]; [11]) | IC50 (Aβtotal [1]; [12]) | IC50 (Aβ42 [2]; [12])
COc1cccc(-c2nc3c(Nc4ccc(-n5ccnc5)c(OC)c4)cccn3c2C)c1 [Compound 35] | > 1000 nM | > 3020 nM | 19 nM | 19 nM | 124.2 °C |  |  |  |  |  |  |  | 
COc1cc(Nc2cccn3cc(-c4ccccc4C)nc23)ccc1-n1cnc(C)n1 [Compound 70] |  |  |  |  |  | 99 % Ctrl | 68 nM | > 3020 nM | 84 % Ctrl |  |  |  | 
COc1cc(Nc2cccn3c(C)c(-c4ccc(CC(C)C)cc4)nc23)ccc1-n1cnc(C)c1 [Compound 38] | > 3000 nM | > 3020 nM | 54 nM | 51 nM | 224.6 °C |  |  |  |  |  |  |  | 
Cc1ccc(C(F)(F)F)cc1-c1cn2cccc(Nc3ccc(-n4ncnc4C)c(F)c3)c2n1 [Compound 130] |  | > 3020 nM |  | 178 nM | 210 °C |  |  |  |  |  |  |  | 
COc1cc(Nc2cccn3cc(C)nc23)ccc1-n1cncn1 [Compound 80] |  | > 10000 nM |  | 3800 nM | 147.5 °C |  |  |  |  |  |  |  | 
Cc1ncn(-c2ccc(Nc3cccn4c(C)c(-c5ccccc5Cl)nc34)cn2)n1 [Compound 87] |  |  |  |  |  | 101 % Ctrl |  |  | 86 % Ctrl | > 10000 nM | 25 nM |  | 
COc1cc(Nc2cccn3cc(Cc4ccc(F)cc4)nc23)ccc1-n1cnc(C)c1 [Compound 3] | > 1000 nM | 12600 nM | 30 nM | 148 nM |  | 95 % Ctrl |  |  | 56 % Ctrl |  |  |  | 
COc1cc(Nc2cccn3cc(-c4ccc(F)cc4C)nc23)ccc1-n1cnc(C)c1 [Compound 52] | > 3000 nM | > 3020 nM | 10 nM | 10 nM |  | 91 % Ctrl |  |  | 66 % Ctrl |  |  |  | 
Cc1ncn(-c2ccc(Nc3cccn4c(C)c(C)nc34)cc2)n1 [Compound 79] |  | > 10000 nM |  | 7410 nM | 230.6 °C |  |  |  |  |  |  |  | 
CCc1cn(-c2ccc(Nc3cccn4c(C)c(-c5cccc(OC)c5)nc34)cc2OC)cn1 [Compound 63] | > 3000 nM | > 3020 nM | 29 nM | 29 nM | 159.9 °C |  |  |  |  |  |  |  | 
CCN(CC)c1ccc(-c2cn3cccc(Nc4ccc(-n5cnc(C)c5)c(OC)c4)c3n2)cc1 [Compound 39] | > 3000 nM | > 3020 nM | 75 nM | 68 nM |  | 108 % Ctrl |  |  | 82 % Ctrl |  |  |  | 
COc1cc(Nc2cccn3cc(-c4ccc(N5CCOCC5)cc4)nc23)ccc1-n1cnc(C)c1 [Compound 40] | > 3000 nM | > 3020 nM | 62 nM | 56 nM |  | 99 % Ctrl |  |  | 80 % Ctrl |  |  |  | 
COc1cc(Nc2cccn3c(-c4ccc(F)cc4)cnc23)ccc1-n1cnc(C)c1 [Compound 8] | > 20000 nM | > 20000 nM | 541 nM | 562 nM |  | 96 % Ctrl |  |  | 88 % Ctrl |  |  |  | 
CCCc1nc2c(Nc3ccc(-n4cnc(C)c4)c(OC)c3)cccn2c1CC [Compound 10] |  |  |  |  |  | 104 % Ctrl |  |  | 67 % Ctrl | > 3020 nM | 51 nM | > 3000 nM | 54 nM
COc1cccc(-c2nc3c(Nc4ccc(-n5cncn5)c(OC)c4)cccn3c2C)c1 [Compound 7] | > 1000 nM | > 3020 nM | 37 nM | 36 nM |  | 105 % Ctrl |  |  | 68 % Ctrl |  |  |  | 
Cc1ncn(-c2ccc(Nc3cccn4cc(-c5ccccc5C)nc34)cn2)n1 [Compound 86] |  |  |  |  |  | 96 % Ctrl |  |  | 86 % Ctrl | > 10000 nM | 117 nM |  | 
COc1cc(Nc2cccn3c(C)c(-c4ccc(F)cc4F)nc23)ccc1-n1cnc(C)c1 [Compound 26] | > 3000 nM | > 3020 nM | 11 nM | 11 nM |  | 94 % Ctrl |  |  | 75 % Ctrl |  |  |  | 
Cc1ncn(-c2ccc(Nc3cccn4c(C)c(-c5ccccc5Cl)nc34)nc2)n1 [Compound 83] |  |  |  |  |  | 104 % Ctrl |  |  | 89 % Ctrl | > 10000 nM | 355 nM |  | 
